Source: publication PMC11542830, “3-nitropyridine analogues as novel microtubule-targeting agents” (PLOS ONE, 2024)
Where two headings read alike, the source gives them in different places.

Legend:
[1] = tested on: EKVX; experiment: NCI60 5-dose screen, EKVX; assay type: cell-based; settings: Homo sapiens, non-small cell lung cancer, Fig 1D, read-out: Log10 GI50 (EKVX) (converted)
Protocol: (§1) The screening methodology used in the NCI60 Cell 5-Doses screen is described in detail at https://dtp.cancer.gov/discovery_development/nci-60/methodology.htm. Briefly, cells are seeded in 96 well plates at an appropriate density and incubated for 1 day. After 1 day, some of the plates are processed to determine a time zero density. To the remaining plates, compounds are added over a 5-log M concentration range (1 log dilutions from 10^-4M to 10^-8M). Plates are incubated for two additional days, then fixed and stained with sulforhodamine B. Growth inhibition is calculated relative to cells without drug treatment and the time zero control. The GI50 is the concentration of a compound that causes 50% growth inhibition, relative to the no drug control.

[2] = tested on: KM12; experiment: NCI60 5-dose screen, KM12; assay type: cell-based; settings: Homo sapiens, colon cancer, Fig 1D, read-out: Log10 GI50 (KM12) (converted)
Protocol: as §1

[3] = tested on: Jurkat cells; experiment: 3-day MTS cell viability assay, Jurkat; assay type: cell-based; settings: Homo sapiens, 72 hours, Fig 1C
Protocol: All cancer cell lines (HT-29: colorectal adenocarcinoma, HCT-116: colorectal carcinoma, A549: lung epithelial carcinoma, PC3: prostate adenocarcinoma, Jurkat: acute T-cell leukemia, BC-1: primary effusion lymphoma) and the normal human embryonal lung fibroblast cell line MRC-5 were acquired from the American Type Culture Collection (ATCC). All cell lines were cultured as recommended by the suppliers. Culture media were purchased from Gibco (Thermo Fisher Scientific) and supplemented with 10 to 20% fetal bovine serum (HyClone, GE Healthcare Life Sciences) and 20–25 μg/mL gentamicin (Gibco, Thermo Fisher Scientific). […]
Cell viability in cancer cell lines treated with compound was measured in a 3-day MTS cell proliferation assay using the CellTiter 96 AQueous Non-Radioactive Cell Proliferation Assay reagent (Promega) according to the manufacturer’s instructions. Absorbance was read at 490 nm on a SaFire II microplate reader (Tecan). CC50 values were calculated by fitting the obtained MTS cell viability data in GraphPad Prism using a 4-parameter log–based fit for inhibitors. Apoptosis induction and cell death upon compound treatment in PBMC was measured using the Alexa Fluor 488 Annexin V/Dead Cell Apoptosis Kit (Thermo Fisher Scientific), with readout on a FACSCanto II flow cytometer (BD Biosciences). […] The compounds were evaluated in duplo in two independent experiments.

[4] = Pharmacokinetics and tissue distribution in mice; assay type: in vivo; settings: CD1 mice, IV bolus 20 mg/kg
Protocol: Female CD1 mice were purchased from Harlan (Harlan Netherlands BV) and 7–8 weeks old mice were injected intravenously (IV) with 20 mg/kg 4AZA2891 formulated at 2 mg/ml as described above. […] The plasma, obtained after centrifugation of the heparinized blood for 2 min at 13,000 g, and the harvested tissues, after homogenization with Ultra-Turrax, were stored at-80°C until analysis by LC-MS/MS.
Every plasma and tissue sample was spiked with internal standard followed by the addition of 4 volumes of methanol. The samples were kept for 30 min on ice prior to centrifugation 10 min at 12,000 RPM in order to remove precipitated proteins. The supernatant was analyzed for the presence of 4AZA2891 using LC/MS/MS (Finnigan LCQ advantage Max (ion trap) mass spectrometer with Surveyor HPLC System (Thermo Finnigan)).
As standard for the bioanalysis, 4AZA2891 was diluted stepwise. Each dilution was added to blank control plasma or to blank control tissue homogenate additionally spiked with internal standard, giving rise to standard curves from 5 to 5,000 ng/ml. The lower limit of quantification was 5 to 10 ng/ml depending on the tissues.
Non-compartmental pharmacokinetic analysis was performed on the plasma concentration-time data. PK Solutions 2.0 software (Summit Research Services) was used to calculate the PK parameters.

[5] = tested on: SF-295; experiment: NCI60 5-dose screen, SF-295; assay type: cell-based; settings: Homo sapiens, CNS cancer, Fig 1D, read-out: Log10 GI50 (SF-295) (converted)
Protocol: as §1

[6] = tested on: OVCAR-4; experiment: NCI60 5-dose screen, OVCAR-4; assay type: cell-based; settings: Homo sapiens, ovarian cancer, Fig 1D, read-out: Log10 GI50 (OVCAR-4) (converted)
Protocol: as §1

[7] = tested on: MDA-MB-468; experiment: NCI60 5-dose screen, MDA-MB-468; assay type: cell-based; settings: Homo sapiens, breast cancer, Fig 1D, read-out: Log10 GI50 (MDA-MB-468) (converted)
Protocol: as §1

[8] = tested on: HT29; experiment: NCI60 5-dose screen, HT29; assay type: cell-based; settings: Homo sapiens, HT-29; colon cancer; Fig 1D; read-out: Log10 GI50 (HT29) (converted)
Protocol: as §1

[9] = Myelotoxicity in mice; assay type: in vivo; settings: Balb/c mice
Protocol: Female Balb/c mice from Janvier Labs, 8–10 weeks old, were injected IV daily for 6 days with 4AZA2891 at 15 mg/kg or with the vehicle (4 mice per treatment group). The compound was formulated at 0.75 mg/ml in glucose 5% with 2 equivalents H3PO4 as described above. Mice were daily weighted and assessed clinically. On day 7, mice were exsanguinated by retro-orbital bleeding under anesthesia with avertin (given intraperitoneally); blood was collected in EDTA tubes and was subjected to an automated blood count (Sysmex XE 2100 Hematology Analyser, Sysmex Europe GmbH). Femurs were fixed in formaldehyde, decalcified, and paraffin embedded. Sections (4.5 μm) were stained with hematoxylin/eosin (H&E) for histopathological analysis at Novaxia (France).

[10] = tested on: IGROV1; experiment: NCI60 5-dose screen, IGROV1; assay type: cell-based; settings: Homo sapiens, IGROV-1; ovarian cancer; Fig 1D; read-out: Log10 GI50 (IGROV1) (converted)
Protocol: as §1

[11] = tested on: T-47D; experiment: NCI60 5-dose screen, T-47D; assay type: cell-based; settings: Homo sapiens, T47D; breast cancer; Fig 1D; read-out: Log10 GI50 (T-47D) (converted)
Protocol: as §1

[12] = 15 mg/kg IV once daily for 6 days, blood on day 7

For `Cc1cc(C)cc(Nc2ccc([N+](=O)[O-])c(NCCN3CCOCC3)n2)c1` [Compound 4AZA2891, 6-(3,5-dimethylanilino)-2-(2-morpholinoethylamino)-3-nitropyridine], the GI50 [1] was 44.7 nM, the GI50 [2] was less than 10 nM and the IC50 [3] was 19.8 nM. The tissue distribution [4] was “distributes readily to all tissues analyzed including the brain”, the half-life ([4]; female, mouse, different tissues (homogenates), tissues, read-out: elimination half-lives in the different tissues) was 18 to 48 min and the AUC(0-t) ([4]; female, mouse, plasma, read-out: AUClast in plasma) was 1290 ng·h/mL. The Kp ([4]; female, mouse, brain, read-out: ratio of brain AUC over plasma AUC) was 2.7, the Kp ([4]; female, mouse, kidney, read-out: ratio of kidney AUC over plasma AUC) was 2.6 and the half-life ([4]; female, mouse, plasma, read-out: elimination half-life (converted)) was 42 min. It also gave a clearance ([4]; female, mouse, plasma, read-out: systemic clearance (converted)) of 257 mL/min/kg, a Vd ([4]; female, mouse, plasma, read-out: volume of distribution at steady state) of 5.7 L/kg and a GI50 [5] of less than 10 nM. For the same compound, the GI50 [6] was less than 10 nM, the GI50 [7] was less than 10 nM and the GI50 [8] was 18.6 nM. The Hb [9, 12] was 14.7 ± 2.2 g/dL, the Platelets [9, 12] was 234 ± 84 10^9/l and the RBC [9, 12] was 9.4 ± 1.6 10^12/l. For the same compound, the WBC [9, 12] was 5.2 ± 2.6 10^9/l, the “histologic examination of the bone marrow” value ([9]; 15 mg/kg/d IV during 6 days) was “normal” and the “tolerability (body weight change, anemia, leukocytopenia, thrombocytopenia)” value ([9]; 15 mg/kg/d IV during 6 days) was “well tolerated”. The GI50 [10] was 49 nM.
Work on `Cc1ccnc(Nc2ccc([N+](=O)[O-])c(NCCN3CCOCC3)n2)c1` [Compound 4AZA2996, N^6-(4-methylpyridin-2-yl)-N^2-(2-morpholinoethyl)-3-nitropyridine-2,6-diamine] yielded a GI50 [2] of less than 10 nM, an IC50 [3] of 14 nM and a GI50 [11] of 26300 nM. For the same compound, the GI50 [5] was less than 10 nM, the GI50 [7] was 27.5 nM and the GI50 [8] was less than 10 nM. For the same compound, the GI50 [10] was 57.5 nM.
